# Paper doi:10.1101/679118v2 (biorxiv, 2019)
# Test system: E. histolytica
# Assay: microbe, parasite or virus in culture
# Parameters: species or system Entamoeba histolytica HM-1:IMSS trophozoites
# Conditions: Entamoeba histolytica, 24 h, read-out: EC50 E. histolytica
row,Compound,EC50 [µM]
1,COc1cc([C@@H]2c3cc4c(cc3[C@@H](O[C@@H]3O[C@@H]5CO[C@@H](C)O[C@H]5[C@H](O)[C@H]3O)[C@H]3COC(=O)[C@H]23)OCO4)cc(OC)c1O [etoposide],200
2,NC1CCN(c2c(F)cc3c(=O)c(C(=O)O)cn(C4CC4)c3c2Cl)C1 (centres unmarked) [Clinafloxacin],270
3,O=C(O)c1cn(C2CC2)c2cc(N3CCNCC3)c(F)cc2c1=O [ciprofloxacin],250
4,C[C@H]([C@H](C)N1CC(=O)NC(=O)C1)N1CC(=O)NC(=O)C1 [ICRF 193],15
5,COc1cc(NS(C)(=O)=O)ccc1Nc1c2ccccc2nc2ccccc12 [Amsacrine],80
